The values below come from article PMC11987438, “A novel approach utilizing spirocyclic thiopyrimidinone compounds against herpes simplex virus with underlying antiviral mechanisms of action” (Virology Journal, 2025).

Data set [1] in a line: Cytotoxicity screening via crystal violet assay. The class given is cell-based. To be noted: African green monkey, Vero cells. On the procedure: A volume of 100 µL of cell suspension containing 10^4 cells was placed in each well of a 96-well plate. The plates containing the cells were then placed in a 5% humidified CO2 incubator at 37 °C for 24 h to allow the cells to form a confluent monolayer. By twofold serial dilution, each compound was diluted in 0.01 mL of medium, starting with a concentration of 1000 µg/ml. The diluted compounds were then cultured for 72 h at 37 °C in an environment with 5% CO2. Each concentration was tested 3 times. After the incubation period, the supernatant was discarded, and the cells were washed with 1x phosphate-buffered saline (PBS). The cells were then fixed with 100 µL of 10% formaldehyde and incubated at room temperature for 20 min. The cells were subsequently washed five times with running water. Next, 50 µL of a 0.1% solution of crystal violet dye (LOBA CHEMIE. LTD; C.I.No. 42555) was added to each well and incubated for 15 min. The cell monolayers were washed again and allowed to air dry. Finally, the crystal violet dye was dissolved by adding 200 µL of methanol, and the mixture was incubated for 20 min. The absorbance was measured via an ELISA plate reader (FLUOstar Omega Ω) at a wavelength of 570 nm. Cell viability was calculated as a percentage of the average optical density of the cell controls, which was set to 100%. The 50% cytotoxic concentration (CC50) was calculated via mean dose‒response curves via GraphPad Prism.

Data set [2] has as its system herpes simplex virus type 2 (HSV-2). Put plainly: Antiviral activity screening by MTT. The class given is cell-based, human herpes simplex virus type 2. To be noted: for IC50: Human alphaherpesvirus 2, HSV-2 (MOI = 1) in Vero cells, 72 h, MTT; for SI: selectivity index, CC50 (Vero) / IC50 (HSV-2). On the procedure: In accordance with the previous section, the CC50 (50% cytotoxic concentration) of each compound was determined as the starting point for screening its antiviral activity. A volume of 100 µL of cell suspension containing 10^4 cells was added to each well of a 96-well plate. The plates with the cells were then placed in a 5% humidified CO2 incubator at 37 °C for 24 h to allow the cells to adhere and form a monolayer. The cell monolayers were subsequently washed once with 1x phosphate-buffered saline (PBS) and infected with herpes simplex virus type 2 (HSV-2) (MOI = 1) in triplicate for 1 h. After the infection period, 100 µL of each compound’s serial dilution was added to the infected cells. A triplicate of untreated infected cells was included as a positive control (VC), and the mixture was incubated for 72 h at 37 °C in a 5% CO2 incubator. Following the 72-hour incubation, the supernatant medium was removed, and the cell monolayers were washed with 1x PBS. Then, 25 µL of a 0.5 mg/mL solution of MTT (3-(4,5-dimethylthiazol-2-yl)-2,5-diphenyltetrazolium bromide) obtained from Sigma‒Aldrich, Saint Louis, MO, USA, was added to each well and incubated for 2 h at 37 °C. The MTT reagent was subsequently discarded, and 200 µL of acidified isopropanol (1 N HCl in 99.9% isopropanol) was added to dissolve the formazan crystals formed by the viable cells. Finally, the color intensity was measured, and the absorbance was recorded via an ELISA plate reader. The data obtained were used to calculate the IC50 values (50% inhibitory concentration) via nonlinear regression analysis. This was accomplished by plotting the logarithm of the inhibitor concentration against the normalized response. The analysis was performed via GraphPad Prism 5 analysis software.

Data set [3] shares this test system. Put plainly: Inhibition mechanism of action: virus replication. The class given is cell-based, human herpes simplex virus type 2. To be noted: Vero cells infected with HSV-2 MOI = 1 for 1 h, then compound, 72 h, MTT. The method, then:
(§1) To gain a better understanding of how each compound’s antiviral activity inhibits specific steps in the viral cycle, we investigated three mechanisms: virus adsorption, virus replication, and viral fusion (virucidal). For the adsorption mechanism, we seeded 100 µl of cell suspension into 96-well cell culture plates under the previously mentioned conditions. After 24 h, the medium was discarded, and the adherent cells were washed with 1x PBS. Then, we added 100 µl of each promising compound at a pretested safe cytotoxic concentration (CC50) to the cells in triplicate. The plates were then incubated at 4 °C for 1 h to allow the compounds to adsorb onto the cell receptors. After incubation, the compound was removed, and the cells were washed again with 1x PBS. Next, we added 100 µl of the virus mixture (MOI = 1) to each well and incubated it for 1 h at 37 °C in a CO2 incubator. The virus was removed, and the cells were washed once more with 1x PBS. Finally, we added 100 µl of maintenance media containing 3% bovine serum albumin (BSA) and incubated the plates for 72 h at 37 °C in a 5% CO2 incubator. For the replication mechanism, we added 100 µl of diluted virus (MOI = 1) to a preseeded 96-well cell culture plate and incubated it for 1 h at 37 °C in a CO2 incubator. After incubation, the virus was removed, and 100 µl of each compound was added in triplicate. The plates were then incubated for 1 h at 37 °C in a CO2 incubator. Next, 100 µl of maintenance medium was added to each well. For the virucidal mechanism, we mixed an equal volume of the safe concentration of the pretested compound with the virus dilution (MOI = 1) and incubated the mixture at room temperature for 1 h. We subsequently prepared twofold serial dilutions of the mixture and inoculated them into the cells, which were then incubated for 1 h at 37 °C in a CO2 incubator. After incubation, the supernatant was removed, the cells were washed, and 100 µl of maintenance media was added. […] Finally, we measured the absorbance at λ = 570 nm via a plate reader (FLUOstar Omega Ω).

For data set [4] the test system is unchanged. Put plainly: Inhibition mechanism of action: virucidal. The class given is cell-based, human herpes simplex virus type 2. To be noted: compound mixed with HSV-2 (MOI = 1) 1 h at room temperature before inoculation of Vero cells, 72 h, MTT. On the procedure:
as §1

Data set [5] relates to Caspase-3 protein expression. Put plainly: Western blot of Caspase-3 protein expression in HSV-2-infected Vero cells. The class given is cell-based, African green monkey. To be noted: HSV-2-infected Vero cells (MOI = 1) treated at IC50; 1, 3, 6, 12 and 24 h postinfection. The method, then:
A 3 ml cell suspension was cultured in six-well cell culture plates supplemented with complete DMEM and then incubated at 37 °C in a 5% CO2 incubator for 24 h. After incubation, the supernatant was discarded, and the cell monolayer was washed with 3 ml of 1x PBS. The cell monolayer was then treated in duplicate according to the IC50. Duplicates for cell and virus control were included. The cell pellets were collected at 1, 3, 6, 12, and 24 h postinfection. The cell pellets were lysed with ice-cold RIPA lysis buffer supplemented with fresh protease inhibitor cocktail, incubated for 30 min on ice, and centrifuged at 15,000 RPM at 4 °C for 20 min, after which the supernatant was transferred to a fresh tube. The total water-soluble protein concentration was quantified via a bicinchoninic acid protein assay kit (Micro BCA™ Protein Assay Kit, REF: 23235; Thermo Scientific). Ten micrograms of protein were loaded in 2x Laemmli buffer and separated via 12% sodium dodecyl sulfate–polyacrylamide gel electrophoresis (SDS‒PAGE) along with a protein ladder (Cat. No. PM008-0500, GeneDirex, Taiwan). The proteins were transferred to a 0.2 μm PVDF membrane (REF.03010040001, Sigma Aldrich, St. Louis, MO, USA) by a Mini-PROTEAN® Tetra Cell and Mini Trans-Blot (Bio-Rad) in transfer buffer (Bio-Rad Tris/Glycine transfer buffer Cat. #1610734) for 45 min at 100 V and 350 mA. β-actin (REF. No. MA5-11869; Invitrogen) was detected as a housekeeping protein against the Caspase-3 mAb (REF. No. 9662 S, Cell Signaling, Danvers, MA, USA) at a 1:1000 dilution via horseradish peroxidase-conjugated anti-mouse IgG (61-6520; Invitrogen) and anti-rabbit IgG (31460; Invitrogen) diluted 1:3000. Bands were detected via SuperSignal™ West Pico PLUS Chemiluminescent Substrate enhanced chemiluminescence (ECL, REF. 34577, Thermo Scientific, USA). Images were captured with a Bio-Rad ChemiDoc gel documentation imaging system and analyzed by Image Lab (Bio-Rad 6.1).

Data set [6] relates to herpes simplex virus type 2 (HSV-2). Put plainly: Inhibition mechanism of action: virus adsorption. To be noted: Vero cells pretreated with compound at safe concentration 1 h at 4 °C, then HSV-2 MOI = 1, 72 h, MTT. It is filed as cell-based, human herpes simplex virus type 2. On the procedure:
as §1, with “incubator.” for “incubator. After incubation, the virus was removed, and 100 µl of each compound was added in triplicate. The plates were then incubated for 1 h at 37 °C in a CO2 incubator. Next, 100 µl of maintenance medium was added to each well. For the virucidal mechanism, we mixed an equal volume of the safe concentration of the pretested compound with the virus dilution (MOI = 1) and incubated the mixture at room temperature for 1 h. We subsequently prepared twofold serial dilutions of the mixture and inoculated them into the cells, which were then incubated for 1 h at 37 °C in a CO2 incubator. After incubation, the supernatant was removed, the cells were washed, and 100 µl of maintenance media was added.”

Each structure is given as a SMILES string. Values after ≈ are worked out from the molar mass of the structure shown. “Also recorded” adds a separate entry of the source.

One may read the CC50 as the concentration at which the toxic effect on the cells reaches its halfway point. Lower therefore signals harm at low concentration. As a reminder, the IC50 is the concentration at which inhibition is half-maximal. Low values mean inhibition by little substance, high ones a need for much substance. With `CC(=O)C(SC1NC(=O)C(C#N)C2(CCCCC2)N1)C(=O)Nc1ccccc1` (stereo not drawn) [Compound 3, 2-((5-cyano-4-oxo-1,3-diazaspiro[5.5]undecan-2-yl)thio)-3-oxo-N-phenylbutanamide], it took 509 µg/mL (≈ 1270 µM) to reach half-maximal cytotoxicity in data set [1] (CC50 at 72 h). In data set [2], this compound registered an IC50 of 45.4 µg/mL (≈ 113 µM). The “inhibition of HSV-2 replication” value in data set [3] is given as 34%. Also, the “inhibition by virucidal mechanism” value in data set [4] is 8%. In data set [5], the “Caspase-3 protein expression level vs HSV-2 virus control” value is on record as “decreased; also recorded: significant decrease”.
As to `CSC1NC(=O)C(C#N)C2(CCCCC2)N1` (stereo not drawn) [Compound 2], half-maximal cytotoxicity in data set [1] (CC50 at 72 h) was put at 566 µg/mL (≈ 2360 µM). Besides, in data set [2], the IC50 was 130 µg/mL (≈ 544 µM). Also, in data set [6], the “inhibition of HSV-2 adsorption” value turned out to be 32%. Besides, in data set [3], the “inhibition of HSV-2 replication” value was 26%. Further, the “inhibition by virucidal mechanism” value in data set [4] was 8%. Also, the “Caspase-3 protein expression level vs HSV-2 virus control” value in data set [5] was “decreased; also recorded: slight changes”.
On to `N#CC1(/N=N/c2ccc(S(N)(=O)=O)cc2)C(=O)NC(=S)NC12CCCCC2` (stereo not drawn) [Compound 5b], for which, in data set [1], the CC50 at 72 h amounted to 124 µg/mL (≈ 306 µM). Besides, in data set [2], 536 µg/mL (≈ 1320 µM) corresponded to half-maximal inhibition (IC50) and the SI was determined as 0.231.
`CC(=O)C(SC1NC(=O)C(C#N)(/N=N/c2ccc(S(=O)(=O)Nc3ccccn3)cc2)C2(CCCCC2)N1)C(C)=O` (stereo not drawn) [Compound 6c] had a cytotoxic concentration (CC50) at 72 h in data set [1] of 42.1 µg/mL (≈ 72.1 µM). In data set [2], this compound displayed an IC50 of 749 µg/mL (≈ 1280 µM) and an SI of 0.056.
In the same order, the values of `CC(=O)C(SC1NC(=O)C(C#N)(/N=N/c2ccc(S(N)(=O)=O)cc2)C2(CCCCC2)N1)C(C)=O` (stereo not drawn) [Compound 6b] are 940 µg/mL (≈ 1860 µM), 5410 µg/mL (≈ 10700 µM) and 0.173.
In the same order, the values of `N#CC1(/N=N/c2ccc(S(=O)(=O)Nc3nccs3)cc2)C(=O)NC(=S)NC12CCCCC2` (stereo not drawn) [Compound 5f] are 107 µg/mL (≈ 219 µM), 399 µg/mL (≈ 814 µM) and 0.268.
In the same order, the values of `N#CC1(/N=N/c2ccc(S(=O)(=O)Nc3ccccn3)cc2)C(=O)NC(=S)NC12CCCCC2` (stereo not drawn) [Compound 5d] are 466 µg/mL (≈ 963 µM), 217 µg/mL (≈ 449 µM) and 2.14.
In turn, `N#CC1(/N=N/c2ccccc2)C(=O)NC(=S)NC12CCCCC2` (stereo not drawn) [Compound 5a] displayed a CC50 at 72 h in data set [1] of 43.9 µg/mL (≈ 134 µM). In data set [2], this compound displayed an IC50 of 974 µg/mL (≈ 2970 µM) and an SI of 0.045.
In turn, `N#CC1(/N=N/c2ccc(S(=O)(=O)Nc3ncccn3)cc2)C(=O)NC(=S)NC12CCCCC2` (stereo not drawn) [Compound 5c] displayed a CC50 at 72 h in data set [1] of 53.7 µg/mL (≈ 111 µM). In data set [2], this compound came in with an IC50 of 13.9 µg/mL (≈ 28.8 µM) and an SI of 3.84. Moreover, in data set [6], the “inhibition of HSV-2 adsorption” value is recorded as 42%. The “inhibition of HSV-2 replication” value in data set [3] worked out at 30%. Moreover, the “inhibition by virucidal mechanism” value in data set [4] stood at 15%. In addition, the “Caspase-3 protein expression level vs HSV-2 virus control” value in data set [5] is on record as “decreased; also recorded: slight changes”.
The compound `N#CC1(/N=N/c2ccc(Cl)cc2)C(=O)NC(=S)NC12CCCCC2` (stereo not drawn) [Compound 5e] yielded a CC50 at 72 h in data set [1] of 103 µg/mL (≈ 284 µM). In data set [2], this compound came in with an IC50 of 346 µg/mL (≈ 956 µM) and an SI of 0.296.
In turn, `CC(=O)C(SC1NC(=O)C(C#N)(/N=N/c2ccc(Cl)cc2)C2(CCCCC2)N1)C(C)=O` (stereo not drawn) [Compound 6a] displayed a CC50 at 72 h in data set [1] of 62.4 µg/mL (≈ 135 µM). In data set [2], this compound had an IC50 of 53.8 µg/mL (≈ 116 µM) and an SI of 1.15.
